Data published in ChEMBL document CHEMBL5154928, “Structure-Aided Design, Synthesis, and Biological Evaluation of Potent and Selective Non-Nucleoside Inhibitors Targeting Protein Arginine Methyltransferase 5” (J Med Chem, 2022).

What was measured:
[1] = target: T1, Histone-arginine methyltransferase CARM1 (Homo sapiens, UniProt Q86X55); assay: Inhibition of PRMT4 (unknown origin) using histone H4 (1 to 21 residues) peptide/SAM as substrate incubated for 210 mins in presence of SAM by AlphaLISA assay
T1 sequence (Q86X55 whole entry): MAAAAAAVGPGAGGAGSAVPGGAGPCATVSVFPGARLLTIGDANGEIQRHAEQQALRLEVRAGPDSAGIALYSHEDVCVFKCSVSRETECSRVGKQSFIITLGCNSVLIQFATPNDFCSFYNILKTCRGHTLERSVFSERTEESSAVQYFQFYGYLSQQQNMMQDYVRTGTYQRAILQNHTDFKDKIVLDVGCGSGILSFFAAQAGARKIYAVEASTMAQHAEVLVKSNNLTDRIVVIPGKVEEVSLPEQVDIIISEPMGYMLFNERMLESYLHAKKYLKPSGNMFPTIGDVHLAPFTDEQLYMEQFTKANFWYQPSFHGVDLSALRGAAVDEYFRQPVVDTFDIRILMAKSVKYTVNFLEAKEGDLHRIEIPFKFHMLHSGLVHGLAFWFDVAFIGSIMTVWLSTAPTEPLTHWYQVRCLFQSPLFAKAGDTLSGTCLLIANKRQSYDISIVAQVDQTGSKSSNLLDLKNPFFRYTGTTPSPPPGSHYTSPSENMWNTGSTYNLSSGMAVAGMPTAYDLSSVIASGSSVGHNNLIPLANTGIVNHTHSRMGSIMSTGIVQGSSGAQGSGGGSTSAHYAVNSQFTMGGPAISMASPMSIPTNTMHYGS

[2] = Clearance in Sprague-Dawley rat at 3 mg/kg, iv measured for 0.25 to 24 hrs by LC-MS/MS analysis; assay type: ADME, organism-based; details: in vivo, time 0.25-24 hrs
[3] = Metabolic stability in rat liver microsomes assessed as half life measured up to 60 mins in presence of NADPH by LC-MS/MS analysis; assay type: ADME, Microsome
[4] = tested on: A-375; assay: Induction of apoptosis in human A-375 cells assessed as total apoptotic cells at 4 uM incubated for 48 hrs by Annexin-V FITC/PI staining based flow cytometry analysis relative to control; assay type: functional
[5] = target: Protein arginine N-methyltransferase 1 (Homo sapiens, UniProt Q99873); assay: Inhibition of PRMT1 (unknown origin) using histone H4 (1 to 21 residues) peptide as substrate incubated for 210 mins in presence of SAM by AlphaLISA assay
[6] = target: T2, Histone-lysine N-methyltransferase NSD2 (Homo sapiens, UniProt O96028); assay: Inhibition of NSD2 (unknown origin) using histone H4 (1 to 21 residues) peptide/SAM as substrate incubated for 210 mins in presence of SAM by AlphaLISA assay
T2 sequence (O96028 whole entry): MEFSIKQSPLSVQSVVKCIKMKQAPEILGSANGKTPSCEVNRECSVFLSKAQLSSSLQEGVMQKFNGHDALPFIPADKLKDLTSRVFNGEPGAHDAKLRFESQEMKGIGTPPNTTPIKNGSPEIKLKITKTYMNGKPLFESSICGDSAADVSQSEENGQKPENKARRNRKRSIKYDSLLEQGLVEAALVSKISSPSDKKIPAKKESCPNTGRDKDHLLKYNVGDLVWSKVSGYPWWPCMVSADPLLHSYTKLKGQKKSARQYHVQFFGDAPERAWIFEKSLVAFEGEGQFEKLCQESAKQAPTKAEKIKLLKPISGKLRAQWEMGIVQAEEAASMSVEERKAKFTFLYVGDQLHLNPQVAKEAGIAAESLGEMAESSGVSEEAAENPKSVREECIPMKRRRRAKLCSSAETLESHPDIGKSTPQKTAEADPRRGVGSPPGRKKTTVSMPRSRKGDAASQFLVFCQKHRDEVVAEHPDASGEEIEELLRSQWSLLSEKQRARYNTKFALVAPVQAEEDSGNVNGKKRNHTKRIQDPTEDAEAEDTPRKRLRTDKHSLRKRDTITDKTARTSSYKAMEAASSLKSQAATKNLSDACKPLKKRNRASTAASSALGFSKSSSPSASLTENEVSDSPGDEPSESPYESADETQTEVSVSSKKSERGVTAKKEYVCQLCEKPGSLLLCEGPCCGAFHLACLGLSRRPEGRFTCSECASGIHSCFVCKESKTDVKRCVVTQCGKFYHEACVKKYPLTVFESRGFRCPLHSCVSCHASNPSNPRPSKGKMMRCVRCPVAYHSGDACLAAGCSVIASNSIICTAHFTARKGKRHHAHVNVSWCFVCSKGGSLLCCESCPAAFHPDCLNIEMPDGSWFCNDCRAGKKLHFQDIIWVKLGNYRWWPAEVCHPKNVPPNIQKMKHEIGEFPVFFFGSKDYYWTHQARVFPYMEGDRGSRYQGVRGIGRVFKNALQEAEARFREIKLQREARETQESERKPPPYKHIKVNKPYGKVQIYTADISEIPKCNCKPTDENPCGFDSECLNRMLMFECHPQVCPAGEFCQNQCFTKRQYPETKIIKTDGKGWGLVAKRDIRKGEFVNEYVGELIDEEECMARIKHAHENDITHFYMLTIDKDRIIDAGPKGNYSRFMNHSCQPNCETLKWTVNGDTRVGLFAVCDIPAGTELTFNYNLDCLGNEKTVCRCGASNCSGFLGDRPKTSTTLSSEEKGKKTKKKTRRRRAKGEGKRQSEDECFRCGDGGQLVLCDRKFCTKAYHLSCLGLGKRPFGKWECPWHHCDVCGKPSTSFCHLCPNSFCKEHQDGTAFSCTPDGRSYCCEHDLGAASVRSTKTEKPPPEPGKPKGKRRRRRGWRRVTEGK

[7] = Metabolic stability in rat liver microsomes assessed as clearance measured up to 60 mins in presence of NADPH by LC-MS/MS analysis; assay type: ADME, Microsome; details: 1 h
[8] = target: Protein arginine N-methyltransferase 5 (Homo sapiens, UniProt O14744); assay: Inhibition of PRMT5 (unknown origin) using histone H4 (1 to 21 residues) peptide/SAM as substrate incubated for 210 mins in presence of SAM by AlphaLISA assay
Sequence of Protein arginine N-methyltransferase 5 (O14744 whole entry, the tested form may be a part): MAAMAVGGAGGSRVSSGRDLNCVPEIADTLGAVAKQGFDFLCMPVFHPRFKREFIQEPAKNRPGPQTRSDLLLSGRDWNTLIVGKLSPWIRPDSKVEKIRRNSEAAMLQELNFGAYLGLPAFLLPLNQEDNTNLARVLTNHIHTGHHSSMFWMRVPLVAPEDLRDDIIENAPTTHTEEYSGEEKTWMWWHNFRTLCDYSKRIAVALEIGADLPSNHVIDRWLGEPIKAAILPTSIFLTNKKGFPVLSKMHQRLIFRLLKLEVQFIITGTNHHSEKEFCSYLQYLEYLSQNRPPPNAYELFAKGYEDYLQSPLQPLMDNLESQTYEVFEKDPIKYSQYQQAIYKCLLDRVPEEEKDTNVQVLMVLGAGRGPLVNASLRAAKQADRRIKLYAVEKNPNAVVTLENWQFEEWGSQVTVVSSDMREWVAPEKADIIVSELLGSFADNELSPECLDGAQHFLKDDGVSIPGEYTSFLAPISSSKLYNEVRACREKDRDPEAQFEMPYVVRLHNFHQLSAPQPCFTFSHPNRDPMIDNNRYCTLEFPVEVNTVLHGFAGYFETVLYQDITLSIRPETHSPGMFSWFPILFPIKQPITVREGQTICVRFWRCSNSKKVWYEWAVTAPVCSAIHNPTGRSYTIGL

Sequence of Protein arginine N-methyltransferase 1 (Q99873 whole entry, the tested form may be a part): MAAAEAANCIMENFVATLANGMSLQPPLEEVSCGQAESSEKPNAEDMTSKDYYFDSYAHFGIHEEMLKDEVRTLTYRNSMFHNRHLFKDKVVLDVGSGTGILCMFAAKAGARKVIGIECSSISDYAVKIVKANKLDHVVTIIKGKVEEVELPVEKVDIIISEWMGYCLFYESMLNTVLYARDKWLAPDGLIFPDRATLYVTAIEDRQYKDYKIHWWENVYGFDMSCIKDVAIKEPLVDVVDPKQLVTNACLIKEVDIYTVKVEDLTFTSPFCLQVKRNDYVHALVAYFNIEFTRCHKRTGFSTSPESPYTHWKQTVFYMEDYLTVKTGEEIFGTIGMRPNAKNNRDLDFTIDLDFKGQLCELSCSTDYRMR

C[C@H](Oc1ccc(-c2cc3c(C4=CCNCC4)ncnc3[nH]2)cc1)c1ccccc1
IC50 [1]: > 20 µM
clearance [2]: 310 mL/min/kg
half-life [3]: 9.25 min
Activity [4]: 95.9%
IC50 [5]: 3.25 µM
IC50 [6]: > 20 µM
CLH [7]: 227 mL/min/g
IC50 [8]: 0.047 µM
